The source of these data is patent US6541519B2, “Methods and compositions for treating lipoxygenase-mediated disease states” (Coastside Bio Resources, priority 2000, dated 2003).

The IC50 is the concentration needed to halve the response being measured. A high value points to weaker potency.

Assay [1] concerns H1299 cells. As to the kind of experiment: MTT cytotoxicity assay, H1299. The assay is classed as cell-based. Particulars: Homo sapiens, NCI-H1299. Here is the method: (§1) The relative cytotoxic activity of 12-MTA against human tumor cells was measured by means of a MTT assay. Human cell lines, including H1299, PC3, K562, A549, DU145, and HL60 were used.
For orientation: Tetrazolium assays rely on reduction of a dye to a coloured formazan, in cell work by metabolically active cells.

The subject of assay [2] is HL60 cells. Briefly: MTT cytotoxicity assay, HL60. Type of assay: cell-based. The following applies: Homo sapiens, HL-60. Here is the method:
as §1

The subject of assay [3] is A549 cells. Briefly: MTT cytotoxicity assay, A549. The assay is classed as cell-based. The following applies: Homo sapiens. On the procedure: as §1
In assay [4] the test system is PC3 cells. As to the kind of experiment: MTT cytotoxicity assay, PC3. Type of assay: cell-based. The following applies: Homo sapiens, PC-3. On the procedure: as §1
Assay [5] relates to DU145 cells. As to the kind of experiment: MTT cytotoxicity assay, DU145. Type of assay: cell-based. Particulars: Homo sapiens, DU-145. Here is the method: as §1
In assay [6] the test system is K562 cells. Briefly: MTT cytotoxicity assay, K562. The assay is classed as cell-based. Particulars: Homo sapiens. Here is the method: as §1
Assay [7] has as its system PC3 human prostate cancer cells. Briefly: Morphological changes by scanning electron microscopy. The assay is classed as cell-based. Particulars: 24.2 μg/ml in 0.1% DMSO, harvested 30', 1, 2, 4, 24 hours. Here is the method:
PC3 cells (5×10^5) were plated in 35 mm dishes. After 24 hours, cells were treated with 24.2 μg/ml of 12-MTA in 0.1% DMSO. The cells were harvested at 30′, 1, 2, 4 and 24 hours. Harvested cells were fixed with 2% paraformaldehyde plus 3% glutformaldehyde in 0.1% sodium cacodylate buffer, pH 7.3. Morphological changes were measured by scanning electron microscopy (SEM).

The subject of assay [8] is PC3 cells. As to the kind of experiment: DNA fragmentation analysis (propidium iodide staining and FACS). The assay is classed as cell-based, human. Particulars: 18.15 μg/ml. On the procedure: To measure apoptosis directly, PC3 cells were treated with various concentrations of 12-MTA. Cell death by apoptosis was quantified by propidium iodide staining and FACS analysis. This technique measures cells with fragmented DNA, which appear as a population with hypodiploid DNA content (FIG. 2). 12-MTA induced concentration-dependent DNA fragmentation in PC3 cells.

Assay [9] has as its system caspase 3 in PC3 cells. Briefly: Caspase 3 activation and PARP cleavage. Type of assay: cell-based, human. The following applies: 24.2 μg/ml, 24 and 48 hours. Here is the method:
Caspases are a family of aspartate-specific cysteine proteases that are required for apoptosis. The most familiar substrate of caspase is PARP, which is involved with regulation of chromatin structure during differentiation and DNA repair. The native PARP protein (Mr, 116,000) is cleaved by caspase 3 or caspase 7 to yield lower molecular weight fragments. To confirm that the induction of apoptosis by 12-MTA involves activation of caspases, we treated PC3 cells with 24.2 μg/ml of 12-MTA and measured PARP cleavage and caspase 3 activation at 24 and 48 hours.

Assay [10] concerns the target T1, 5-lipoxygenase (Rattus norvegicus, UniProt P12527).
T1 construct: endogenous in cells; host or cells: RBL-1 (rat leukemia) cells
T1 sequence (P12527 1-673): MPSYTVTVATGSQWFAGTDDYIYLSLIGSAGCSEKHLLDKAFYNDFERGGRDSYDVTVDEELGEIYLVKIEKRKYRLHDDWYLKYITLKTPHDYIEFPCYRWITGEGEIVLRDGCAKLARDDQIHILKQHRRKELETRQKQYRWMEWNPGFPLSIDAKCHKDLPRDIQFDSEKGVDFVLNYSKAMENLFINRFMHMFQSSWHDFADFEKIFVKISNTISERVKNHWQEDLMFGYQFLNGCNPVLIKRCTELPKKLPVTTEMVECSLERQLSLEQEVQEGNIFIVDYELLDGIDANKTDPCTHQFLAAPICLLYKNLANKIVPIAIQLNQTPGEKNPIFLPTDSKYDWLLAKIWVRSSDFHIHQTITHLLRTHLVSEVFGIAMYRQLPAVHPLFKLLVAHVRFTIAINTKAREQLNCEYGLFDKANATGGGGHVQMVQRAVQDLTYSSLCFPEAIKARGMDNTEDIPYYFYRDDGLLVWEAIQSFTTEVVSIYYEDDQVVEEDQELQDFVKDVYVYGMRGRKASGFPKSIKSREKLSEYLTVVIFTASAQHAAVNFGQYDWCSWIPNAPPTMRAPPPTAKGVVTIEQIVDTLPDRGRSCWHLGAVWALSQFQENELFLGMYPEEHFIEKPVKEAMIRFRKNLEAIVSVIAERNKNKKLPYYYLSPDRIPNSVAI
Briefly: Inhibition of 5-lipoxygenase activity (5-HETE and LTB4 production, LC/MS/MS). Type of assay: cell-based. The following applies: RBL-1 cells, 5 minutes at 37° C., then A23187 and arachidonic acid. Here is the method: (§2) 12-MTA in rat leukemia (RBL-1) cells were examined. Cells were treated with 12-MTA (5 to 100 μg/ml) for 5 minutes at 37° C. followed by addition of A23187 (1 mM) and arachidonic acid (125 μM). Then the eicosanoids were extracted with hexane:ethyl acetate and analyzed by Multiple Reaction Monitoring in a tandem mass spectrometer (LC/MS/MS). Among seven eicosanoid metabolites, including PGE2, LTB4, 5-, 8-, 11-, 12-, and 15-HETEs, reduced production of 5-HETE and LTB4 in 12-MTA treated cells was observed. […] The inhibitory activity of 12-MTA on production of 5-HETE and LTB4 was concentration-dependent. This study further confirmed that 12-MTA is a 5-lipoxygenase inhibitor. 12-MTA, at 100 μg/mL, inhibited production of 12-HETE by 25% […].

Assay [11] relates to 12-lipoxygenase. As to the kind of experiment: Inhibition of 12-HETE production in RBL-1 cells (LC/MS/MS). The assay is classed as cell-based, rat. The following applies: 100 μg/mL. On the procedure: as §2
The test system of assay [12] is PPAR-γ. Briefly: PPAR-γ expression by immunoblot, DU145. Type of assay: cell-based, human. Particulars: DU145 cells, 24.2 μg/ml, serum-free media, 24 hours; preliminary data. On the procedure:
(§3) Peroxisome proliferator-activated receptors (PPAR) represent a family of steroid hormone receptors in a superfamily mainly involved with lipid metabolism. Recently, high levels of PPAR-γ were reportedly expressed in prostate cancer tumor and activation of PPAR-γ was associated with nonapoptotic cell death induced by some PPAR-γ ligands. […] We have examined the effects of 12-MTA on activation of PPAR-γ in DU145 and PC3 cells. Cells were treated with 24.2 μg/ml of 12-MTA in serum-free media. After 24 hours, cells were harvested and expression of PPAR-γ was detected by immunoblot with or without blocking peptide.

Assay [13] deals with PPAR-γ. Briefly: PPAR-γ expression by immunoblot, PC3. Type of assay: cell-based, human. The following applies: PC3 cells, 24.2 μg/ml, serum-free media, 24 hours; preliminary data. On the procedure: as §3
In general terms: A western blot detects proteins with antibodies after separation by electrophoresis.

Assay [14] concerns the target T2, 5-lipoxygenase (Homo sapiens, UniProt P09917).
T2 sequence (P09917 1-674): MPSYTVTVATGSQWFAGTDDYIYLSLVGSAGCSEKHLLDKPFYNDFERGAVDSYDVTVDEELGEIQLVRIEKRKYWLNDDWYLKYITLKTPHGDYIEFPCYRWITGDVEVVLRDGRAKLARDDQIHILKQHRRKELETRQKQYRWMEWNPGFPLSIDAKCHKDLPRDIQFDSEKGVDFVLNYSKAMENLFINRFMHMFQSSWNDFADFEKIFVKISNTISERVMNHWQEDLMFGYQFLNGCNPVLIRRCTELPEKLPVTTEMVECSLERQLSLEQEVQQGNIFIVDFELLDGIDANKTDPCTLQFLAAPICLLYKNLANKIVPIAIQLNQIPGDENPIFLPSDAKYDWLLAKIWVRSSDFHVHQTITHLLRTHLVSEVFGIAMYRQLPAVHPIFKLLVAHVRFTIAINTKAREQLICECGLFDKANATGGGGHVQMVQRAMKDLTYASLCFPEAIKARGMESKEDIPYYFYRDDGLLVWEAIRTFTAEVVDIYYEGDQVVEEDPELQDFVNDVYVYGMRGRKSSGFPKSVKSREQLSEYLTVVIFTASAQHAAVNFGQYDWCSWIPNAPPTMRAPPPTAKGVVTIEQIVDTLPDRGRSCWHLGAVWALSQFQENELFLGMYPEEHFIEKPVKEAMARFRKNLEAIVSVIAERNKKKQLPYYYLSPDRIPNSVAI
As to the kind of experiment: Activity based fractionation, 5-HETE inhibition (UV 235 nm). Type of assay: biochemical. The following applies: preparative TLC spot at 1:100 dilution. An excerpt: The method of isolation was by ‘activity based fractionation’ using 5- and 12-lipoxygenase inhibition as the guiding assay. Using chromatography, preparative HPLC and preparative TLC of the sea cucumber oil, and checking 5-HETE with detection with UV at 235 nm, one particular spot on the TLC inhibited 5-HETE by approximately 94% at a 1:100 dilution. (FIGS. 3 and 4) The effect of 12-MTA on 5-HETE inhibition was also concentration dependent. The identity of the particular inhibitory ‘spot’ from preparative TLC was later identified by GC/MS, MS and NMR analysis and was confirmed to be 12-methyltetradecanoic acid (12-MTA).

Values after ≈ are worked out from the molar mass of the structure shown.

Turning to `CCC(C)CCCCCCCCCCC(=O)O` (stereo not drawn) [12-MTA, 12-methyltetradecanoic acid], the IC50 in [1] worked out at 18.1 mg/L (≈ 74.9 µM); in assay [2] it was 20.6 mg/L (≈ 84.9 µM); in [3] it was 21.8 mg/L (≈ 89.9 µM); in [4], 30.1 mg/L (≈ 124 µM); in assay [5] it was 30.2 mg/L (≈ 125 µM); in assay [6], 33.1 mg/L (≈ 137 µM). Further, the concentration for half-maximal inhibition (IC50) in [10] was around 103 µM. The “Morphological (apoptotic) changes by SEM” value in [7] is on record as “cells exhibited apoptotic changes after 1-hour of exposure”. For the same compound, the “percent of apoptotic cells (fragmented DNA)” value in assay [8] came out at 75%. Also, the PARP cleavage entry in assay [9] is “prominent PARP cleavage”. For the same compound, the “caspase 3 activation” value in assay [9] was “can activate caspase 3”. The “inhibition of production of 12-HETE” value in [11] was 25%. The “expression of PPAR-γ” value in assay [12] and in assay [13] was “only slightly increased” throughout. The “inhibition of 5-HETE” value in assay [14] was “approximately 94%”.
